Results taken from patent US10294202B2, “Pyrrolidinones as herbicides” (FMC Corporation, priority 2013, dated 2019).

How the values were obtained:
blackgrass = assay: Test A postemergence herbicide test; format: in vivo, Alopecurus myosuroides
Method in brief: (§1)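 Young potted plants in a loam–sand mix, one- to two-leaf stage and 2–10 cm tall, receive the test chemical postemergence and stay in a greenhouse for approximately 10 days. Injury is then judged by eye against untreated plants, scored 0 (none) to 100 (complete control).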

giant foxtail = assay: Test A pre-/postemergence herbicide test; format: in vivo, Setaria faberii
Method in brief: (§2)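 Visual 0–100 ratings (100 = complete control) made about 10 days after treatment, greenhouse-held plants compared with untreated controls. Treatments: postemergence sprays on one- to two-leaf plants (2–10 cm tall) and preemergence directed soil sprays after planting in loam–sand, chemicals formulated in non-phytotoxic solvent containing surfactant.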

rice = assay: Test B flooded paddy test; format: in vivo, Oryza sativa; settings: 500 g ai/ha, Flood; scale of 0 to 100 where 0 is no effect and 100 is complete control
Method in brief: (§3)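 First, plants reach the 2-leaf stage; next, pots are flooded to 3 cm and compound is delivered into the water; finally, after 13 to 15 greenhouse days at constant depth, injury is graded visually from 0 to 100 against controls.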

galium = assay: Test A postemergence herbicide test; format: in vivo, Galium aparine
Method in brief: as §1

barnyardgrass [1] = assay: Test A pre-/postemergence herbicide test; format: in vivo, Echinochloa crus-galli
Method in brief: as §2

kochia = assay: Test A pre-/postemergence herbicide test; format: in vivo, Kochia scoparia
Method in brief: as §2

corn = assay: Test A pre-/postemergence herbicide test; format: in vivo, Zea mays; settings: Postemergence
Method in brief: as §2

wheat = assay: Test A pre-/postemergence herbicide test; format: in vivo, Triticum aestivum; settings: Postemergence
Method in brief: as §2

ducksalad = assay: Test B flooded paddy test; format: in vivo, Heteranthera limosa; settings: 500 g ai/ha, Flood; scale of 0 to 100 where 0 is no effect and 100 is complete control
Method in brief: as §3

pigweed = assay: Test A pre-/postemergence herbicide test; format: in vivo, Amaranthus retroflexus
Method in brief: as §2

sedge, umbrella = assay: Test B flooded paddy test; format: in vivo, Cyperus difformis; settings: 500 g ai/ha, Flood; scale of 0 to 100 where 0 is no effect and 100 is complete control
Method in brief: as §3

ragweed = assay: Test A pre-/postemergence herbicide test; format: in vivo, Ambrosia elatior
Method in brief: as §2

ryegrass, Italian = assay: Test A pre-/postemergence herbicide test; format: in vivo, Lolium multiflorum
Method in brief: as §2

barnyardgrass [2] = assay: Test B flooded paddy test; format: in vivo, Echinochloa crus-galli; settings: 500 g ai/ha, Flood; scale of 0 to 100 where 0 is no effect and 100 is complete control
Method in brief: as §3

[3] = 125 g ai/ha, visual rating on 0 to 100 scale (0 no effect, 100 complete control), approx. 10 days
[4] = 500 g ai/ha, 0 to 100 scale (0 no effect, 100 complete control)
[5] = Postemergence, 125 g ai/ha, visual rating on 0 to 100 scale (0 no effect, 100 complete control), approx. 10 days
[6] = Postemergence, 500 g ai/ha, 0 to 100 scale (0 no effect, 100 complete control)
[7] = Preemergence, 125 g ai/ha, 0 to 100 scale where 0 is no effect and 100 is complete control
[8] = Preemergence, 500 g ai/ha, visual rating on 0 to 100 scale (0 no effect, 100 complete control)

Row | Compound | Plant response rating, Blackgrass (blackgrass; [3]) | Plant response rating, Blackgrass (blackgrass; [4]) | Plant response rating, Foxtail, Giant (giant foxtail; [5]) | Plant response rating, Foxtail, Giant (giant foxtail; [6]) | Plant response rating, Foxtail, Giant (giant foxtail; [7]) | Foxtail, Giant plant response rating (giant foxtail; [8]) | Plant response rating, Rice (rice) | Plant response rating, Galium (galium; [3]) | Plant response rating, Barnyardgrass (barnyardgrass [1]; [5]) | Plant response rating, Barnyardgrass (barnyardgrass [1]; [6]) | Plant response rating, Barnyardgrass (barnyardgrass [1]; [7]) | Barnyardgrass plant response rating (barnyardgrass [1]; [8]) | Plant response rating, Kochia (kochia; [5]) | Plant response rating, Kochia (kochia; [7]) | Kochia plant response rating (kochia; [8]) | Plant response rating, Corn (corn; [3]) | Plant response rating, Corn (corn; [4]) | Plant response rating, Wheat (wheat; [3]) | Plant response rating, Ducksalad (ducksalad) | Plant response rating, Pigweed (pigweed; [5]) | also measured
1 | CCN1CC(c2ccc(C(F)(F)F)cc2)C(C(=O)Nc2ccccc2F)C1=O (stereo not drawn) [Compound 335] | 0 | 20 | 70 | 90 | 70 | 90 | 0 | 0 | 20 | 60 | 0 | 50 | 0 | 40 | 60 | 0 | 0 | 0 | 65 | 0 | Plant response rating, Galium (galium; [4]): 0; Plant response rating, Kochia (kochia; [6]): 0; Plant response rating, Wheat (wheat; [4]): 20; Plant response rating, Pigweed (pigweed; [6]): 0; Plant response rating, Pigweed (pigweed; [7]): 0; Pigweed plant response rating (pigweed; [8]): 30; Plant response rating, Sedge, Umbrella (sedge, umbrella): 0; Plant response rating, Ragweed (ragweed; [5]): 0; Plant response rating, Ragweed (ragweed; [6]): 0; Plant response rating, Ragweed (ragweed; [7]): 0; Ragweed plant response rating (ragweed; [8]): 0; Plant response rating, Ryegrass, Italian (ryegrass, Italian; [5]): 0; Plant response rating, Ryegrass, Italian (ryegrass, Italian; [6]): 0; Plant response rating, Ryegrass, Italian (ryegrass, Italian; [7]): 0; Ryegrass, Italian plant response rating (ryegrass, Italian; [8]): 0; Plant response rating, Barnyardgrass (barnyardgrass [2]): 0
2 | CCN1CC(c2ccc(C(F)(F)F)cc2)C(C(=O)Nc2cccc(F)c2F)C1=O (stereo not drawn) [Compound 336] | 0 | 0 | 70 | 70 | 80 | 90 | 0 | 0 | 30 | 60 | 50 | 60 | 0 | 0 | 60 | 0 | 0 | 0 | 60 | 0 | Plant response rating, Galium (galium; [4]): 0; Plant response rating, Kochia (kochia; [6]): 0; Plant response rating, Wheat (wheat; [4]): 0; Plant response rating, Pigweed (pigweed; [6]): 0; Plant response rating, Pigweed (pigweed; [7]): 0; Pigweed plant response rating (pigweed; [8]): 20; Plant response rating, Sedge, Umbrella (sedge, umbrella): 0; Plant response rating, Ragweed (ragweed; [5]): 0; Plant response rating, Ragweed (ragweed; [6]): 0; Plant response rating, Ragweed (ragweed; [7]): 0; Ragweed plant response rating (ragweed; [8]): 0; Plant response rating, Ryegrass, Italian (ryegrass, Italian; [5]): 0; Plant response rating, Ryegrass, Italian (ryegrass, Italian; [6]): 0; Plant response rating, Ryegrass, Italian (ryegrass, Italian; [7]): 0; Ryegrass, Italian plant response rating (ryegrass, Italian; [8]): 20; Plant response rating, Barnyardgrass (barnyardgrass [2]): 50
3 | O=C1NCC(c2cccc(-n3cccn3)c2)C1C(=O)Nc1ccccc1C(F)(F)F (stereo not drawn) [Compound 338] | 0 | 0 | 20 | 60 | 30 | 80 | 0 | 0 | 0 | 30 | 0 | 20 | 0 | 0 | 20 | 0 | 0 | 0 | 0 | 0 | Plant response rating, Pigweed (pigweed; [7]): 0; Pigweed plant response rating (pigweed; [8]): 0; Plant response rating, Sedge, Umbrella (sedge, umbrella): 0; Plant response rating, Ragweed (ragweed; [5]): 0; Plant response rating, Ragweed (ragweed; [7]): 0; Ragweed plant response rating (ragweed; [8]): 0; Plant response rating, Ryegrass, Italian (ryegrass, Italian; [5]): 0; Plant response rating, Ryegrass, Italian (ryegrass, Italian; [7]): 0; Ryegrass, Italian plant response rating (ryegrass, Italian; [8]): 0; Plant response rating, Barnyardgrass (barnyardgrass [2]): 0
